Assay results as given in patent publication US11046686B2, “Thiadiazole IRAK4 compounds” (Gilead Sciences, Inc., priority 2018, dated 2021).
Read-outs that look alike come from different tables or passages of the source.

Tested on: TNFα
Assay: IRAK4 Monocyte TNFα Cell Based Assay
Set-up: species or system human
Settings: read-out: EC50 MONO TNF HTRF
Method in brief: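 TNFα release quantified by HTRF (cryptate/XL665 antibody pair, overnight at RT) after 1 h compound pre-incubation (0.1% DMSO) and 4 h LPS challenge at 50 pg/ml, 37 °C, 5,000 monocytes per well. Signal ratio normalised between unstimulated (0%) and stimulated (100%) controls.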

[1] = human monocytes, second part of Table 2, compounds 33-343, unit inferred

Compound `CC(C)Nc1cc(-c2ccc3cc(C#N)cnn23)ncc1-c1nnc(N2CC3CC(C2)N3C(=O)CN=S(C)(C)=O)s1` [Example 107, 7-(5-(5-(6-(2-((dimethyl(oxo)-16-sulfanylidene)amino)acetyl)-3,6-diazabicyclo[3.1.1]heptan-3-yl)-1,3,4-thiadiazol-2-yl)-4-(isopropylamino)pyridin-2-yl)pyrrolo[1,2-b]pyridazine-3-carbonitrile] has an EC50 (Homo sapiens, Monocyte) of 18.4 nM.
In the case of `CC(C)Nc1cc(-c2ccc3cc(C#N)cnn23)ncc1-c1nnc(N2CC3CC(C2)N3C(=O)N2CCN(C)CC2)s1` [Example 108, 7-(4-(isopropylamino)-5-(5-(6-(4-methylpiperazine-1-carbonyl)-3,6-diazabicyclo[3.1.1]heptan-3-yl)-1,3,4-thiadiazol-2-yl)pyridin-2-yl)pyrrolo[1,2-b]pyridazine-3-carbonitrile], the EC50 (Homo sapiens, Monocyte) is reported as 20.6 nM.
For `CC1(Nc2cc(-c3ccc4cc(C#N)cnn34)ncc2-c2nnc(N3C[C@H]4CC[C@@H](C3)[C@@H]4NC(=O)CN=S(C)(C)=O)s2)COC1` [Example 109, N-((1R,5S,8s)-3-(5-(6-(3-cyanopyrrolo[1,2-b]pyridazin-7-yl)-4-((3-methyloxetan-3-yl)amino)pyridin-3-yl)-1,3,4-thiadiazol-2-yl)-3-azabicyclo[3.2.1]octan-8-yl)-2-((dimethyl(oxo)-16-sulfanylidene)amino)acetamide], the EC50 [1] was 4.1 nM.
Compound `CN1CCN(C(=O)N[C@@H]2[C@@H]3CC[C@H]2CN(c2nnc(-c4cnc(-c5ccc6cc(C#N)cnn56)cc4NC4(C)COC4)s2)C3)CC1` [Example 110, N-((1R,5S,8s)-3-(5-(6-(3-cyanopyrrolo[1,2-b]pyridazin-7-yl)-4-((3-methyloxetan-3-yl)amino)pyridin-3-yl)-1,3,4-thiadiazol-2-yl)-3-azabicyclo[3.2.1]octan-8-yl)-4-methylpiperazine-1-carboxamide] has an EC50 [1] of 1.8 nM.
In the case of `CC(=O)N1C2CC1CN(c1nnc(-c3cnc(-c4ccc5cc(C#N)cnn45)cc3NC3(C)COC3)s1)C2` [Example 111, 7-(5-(5-(6-acetyl-3,6-diazabicyclo[3.1.1]heptan-3-yl)-1,3,4-thiadiazol-2-yl)-4-((3-methyloxetan-3-yl)amino)pyridin-2-yl)pyrrolo[1,2-b]pyridazine-3-carbonitrile], the EC50 (Homo sapiens, Monocyte) is reported as 8.8 nM.
With `CC1(Nc2cc(-c3ccc4cc(C#N)cnn34)ncc2-c2nnc(N3CC4CC(C3)N4C(=O)C(C)(C)O)s2)COC1` [Example 112, 7-(5-(5-(6-(2-hydroxy-2-methylpropanoyl)-3,6-diazabicyclo[3.1.1]heptan-3-yl)-1,3,4-thiadiazol-2-yl)-4-((3-methyloxetan-3-yl)amino)pyridin-2-yl)pyrrolo[1,2-b]pyridazine-3-carbonitrile] the EC50 (Homo sapiens, Monocyte) was 13.1 nM.
`CC1(Nc2cc(-c3ccc4cc(C#N)cnn34)ncc2-c2nnc(N3CC4CC(C3)N4C(=O)CN=S(C)(C)=O)s2)COC1` [Example 113, 7-(5-(5-(6-(2-((dimethyl(oxo)-16-sulfanylidene)amino)acetyl)-3,6-diazabicyclo[3.1.1]heptan-3-yl)-1,3,4-thiadiazol-2-yl)-4-((3-methyloxetan-3-yl)amino)pyridin-2-yl)pyrrolo[1,2-b]pyridazine-3-carbonitrile] was tested, and the EC50 [1] was 47.4 nM.
For `CN1CCN(C(=O)N2C3CC2CN(c2nnc(-c4cnc(-c5ccc6cc(C#N)cnn56)cc4NC4(C)COC4)s2)C3)CC1` [Example 114, 7-(4-((3-methyloxetan-3-yl)amino)-5-(5-(6-(4-methylpiperazine-1-carbonyl)-3,6-diazabicyclo[3.1.1]heptan-3-yl)-1,3,4-thiadiazol-2-yl)pyridin-2-yl)pyrrolo[1,2-b]pyridazine-3-carbonitrile], the EC50 (Homo sapiens, Monocyte) was 24.4 nM.
Compound `C[C@H](C#N)Nc1cc(-c2ccc3cc(C#N)cnn23)ncc1-c1nnc(N2CC3CC(C2)N3C(=O)C(C)(C)O)s1` [Example 115] has an EC50 [1] of 3.5 nM.
With `CC(C)Nc1cc(-c2ccc3cc(C#N)cnn23)ncc1-c1nnc(N2CC3CC(C2)N3C(=O)C2CCN(C)CC2)s1` [Example 117] the EC50 [1] was 11.1 nM.
For `CN1CCC(C(=O)N2C3CC2CN(c2nnc(-c4cnc(-c5ccc6cc(C#N)cnn56)cc4NC4(C)COC4)s2)C3)CC1` [Example 118, 7-(4((3-methyloxetan-3-yl)amino)-5-(5-(6-(1-methylpiperidine-4-carbonyl)-3,6-diazabicyclo[3.1.1]heptan-3-yl)-1,3,4-thiadiazol-2-yl)pyridin-2-yl)pyrrolo[1,2-b]pyridazine-3-carbonitrile], the EC50 (Homo sapiens, Monocyte) was 29 nM.
Compound `CN1CCC(C(=O)N[C@@H]2[C@@H]3CC[C@H]2CN(c2nnc(-c4cnc(-c5ccc6cc(C#N)cnn56)cc4NC4(C)COC4)s2)C3)CC1` [Example 119, N-((1R,5S,8s)-3-(5-(6-(3-cyanopyrrolo[1,2-b]pyridazin-7-yl)-4-((3-methyloxetan-3-yl)amino)pyridin-3-yl)-1,3,4-thiadiazol-2-yl)-3-azabicyclo[3.2.1]octan-8-yl)-1-methylpiperidine-4-carboxamide] has an EC50 [1] of 1.2 nM.
With `CC(C)Nc1cc(-c2ccc3cc(C#N)cnn23)ncc1-c1nnc([C@H]2CC[C@H](NC(=O)C3CC3)CC2)s1` [Example 125, N-((1r,4r)-4-(5-(6-(3-cyanopyrrolo[1,2-b]pyridazin-7-yl)-4-(isopropylamino)pyridin-3-yl)-1,3,4-thiadiazol-2-yl)cyclohexyl)cyclopropanecarboxamide] the EC50 [1] was 5.4 nM.
`COC(=O)N[C@H]1CC[C@H](c2nnc(-c3cnc(-c4ccc5cc(C#N)cnn45)cc3NC(C)C)s2)CC1` [Example 126, methyl ((1r,4r)-4-(5-(6-(3-cyanopyrrolo[1,2-b]pyridazin-7-yl)-4-(isopropylamino)pyridin-3-yl)-1,3,4-thiadiazol-2-yl)cyclohexyl)carbamate] gave an EC50 [1] of 26.2 nM.
`COC(=O)NC[C@H]1C[C@H](Nc2cc(-c3ccc4cc(C#N)cnn34)ncc2-c2nnc([C@H]3CC[C@H](NC(=O)C4CC4)CC3)s2)C1` [Example 134, methyl (((1R,3r)-3-((2-(3-cyanopyrrolo[1,2-b]pyridazin-7-yl)-5-(5-((1r,4R)-4-(cyclopropanecarboxamido)cyclohexyl)-1,3,4-thiadiazol-2-yl)pyridin-4-yl)amino)cyclobutyl)methyl)carbamate] showed an EC50 [1] of 6.9 nM.
Compound `N#Cc1cnn2c(-c3cc(NC4COC4)c(-c4nnc([C@H]5CC[C@H](NC(=O)C6CC6)CC5)s4)cn3)ccc2c1` [Example 135, N-((1r,4r)-4-(5-(6-(3-cyanopyrrolo[1,2-b]pyridazin-7-yl)-4-(oxetan-3-ylamino)pyridin-3-yl)-1,3,4-thiadiazol-2-yl)cyclohexyl)cyclopropanecarboxamide] has an EC50 [1] of 10.5 nM.
Work on `CC(C)Nc1cc(-c2ccc3cc(C#N)cnn23)ncc1-c1nnc(C2CCN(C3COC3)CC2)s1` [Example 138] yielded an EC50 [1] of 15 nM.
In the case of `CC(C)Nc1cc(-c2ccc3cc(C#N)cnn23)ncc1-c1nnc([C@H]2CC[C@H](NC(=O)N3CCOCC3)CC2)s1` [Example 139, N-((1r,4r)-4-(5-(6-(3-cyanopyrrolo[1,2-]Apyridazin-7-yl)-4-(isopropylamino)pyridin-3-yl)-1,3,4-thiadiazol-2-yl)cyclohexyl)morpholine-4-carboxamide], the EC50 [1] is reported as 5.9 nM.
With `CNC(=O)N[C@H]1CC[C@H](c2nnc(-c3cnc(-c4ccc5cc(C#N)cnn45)cc3NC(C)C)s2)CC1` [Example 140, 1-((1r,4r)-4-(5-(6-(3-cyanopyrrolo[1,2-b]pyridazin-7-yl)-4-(isopropylamino)pyridin-3-yl)-1,3,4-thiadiazol-2-yl)cyclohexyl)-3-methylurea] the EC50 [1] was 6.4 nM.
